Source: patent publication US10385067B2, “Sodium (2R,5S,13aR)-7,9-dioxo-10-((2,4,6-trifluorobenzyl)carbamoyl)-2,3,4,5,7,9,13,13a-octahydro-2,5-methanopyrido[1′,2′:4,5]pyrazino[2,1-b][1,3]oxazepin-8-olate” (Gilead Sciences, Inc., priority 2014, dated 2019)

How the values were obtained:
[1] = Stability on storage under accelerated conditions; type: physicochemical; conditions: after four weeks of storage under accelerated conditions
Experimental: The stability of sodium (2R,5S,13aR)-7,9-dioxo-10-((2,4,6-trifluorobenzyl)carbamoyl)-2,3,4,5,7,9,13,13a-octahydro-2,5-methanopyrido[1′,2′:4,5]pyrazino[2,1-b][1,3]oxazepin-8-olate Form I was tested. […] In Table 5, AN refers to area normalization and is the relative peak area of the active with respect to other impurities and components contained in the sample. LS refers to labile strength and is the amount of active present relative to the theoretical amount.

HIV = conditions: as discussed in co-pending U.S. Ser. No. 14/133,855 and PCT US2013/076367; cited from earlier work

| SMILES | stability [1] | anti-viral activity (HIV) |
| --- | --- | --- |
| O=C(NCc1c(F)cc(F)cc1F)c1cn2c(c([O-])c1=O)C(=O)N1[C@H]3CC[C@H](C3)O[C@@H]1C2.[Na+] [Formula II Form I, sodium (2R,5S,13aR)-7,9-dioxo-10-((2,4,6-trifluorobenzyl)carbamoyl)-2,3,4,5,7,9,13,13a-octahydro-2,5-methanopyrido[1′,2′:4,5]pyrazino[2,1-b][1,3]oxazepin-8-olate] | stable | – |
| O=C(NCc1c(F)cc(F)cc1F)c1cn2c(c(O)c1=O)C(=O)N1[C@H]3CC[C@H](C3)O[C@@H]1C2 [Formula I, (2R,5S,13aR)-8-hydroxy-7,9-dioxo-N-(2,4,6-trifluorobenzyl)-2,3,4,5,7,9,13,13a-octahydro-2,5-methanopyrido[1′,2′:4,5]pyrazino[2,1-b][1,3]oxazepine-10-carboxamide] | – | demonstrates anti-viral activity |
